Assay results as given in US9517269B1, “Stable pentobarbital formulation” (Akorn, Inc., priority 2013, dated 2016).

Tests used:
[1] = Formulation Development Study #2 (target pH 8.70): physical observations; format: physicochemical; settings: below pH 8.7
Protocol: Based on Formulation Development Study #1, four more lab batches were made with different concentrations of propylene glycol and ethyl alcohol at target pH 8.70. The purpose of the study was to determine the influence of low pH and different concentrations of propylene glycol and ethyl alcohol on the product quality. Physical observations were recorded during compounding. Lab batch samples were placed on stability at room temperature, 40° C. and 50° C. Only physical observations were performed and recorded during stability. The stability study lasted one month.

[2] = Formulation Development Study #5 (44% propylene glycol): physical observations; format: physicochemical; settings: with 44% propylene glycol at pH-9.0
Protocol: In order to determine at what pH precipitate forms at room temperature, three lab batches were made with 44% propylene glycol and target pH at 9.1, 9.0 and 8.9. […] Lab batch samples were placed on stability at room temperature, 40° C., and 50° C. for three months. Only physical observations were performed during the stability study.

[3] = background statement; cited from earlier work
[4] = Formulation Development Study #4 (target pH 9.0): physical observations; format: physicochemical; settings: pH ˜9.0 and propylene glycol concentration less than 50%
Protocol: Four lab batches similar to Formulation Development Study #3 were made. The purpose of these batches was to find out if impurity at RRT 0.7 can be reduced by making lab batches with different concentrations of propylene glycol and alcohol at the target pH of 9.0. […] These four lab batches were placed on stability at room temperature, 40° C., and 50° C.

Compound: CCCC(C)C1(CC)C(=O)NC(=O)NC1=O (stereo not shown) [pentobarbital, 5-Ethyl-5-(1-methylbutyl)-2,4,6(1H,3H,5H)-pyrimidinetrione]
- Stability of pentobarbital in solution (precipitation) [1]: not stable
- Stability of pentobarbital in solution (precipitation) [2]: not stable
- pH at which pentobarbital precipitates [3]: less than 9.0
- Stability of pentobarbital in solution (precipitation) [4]: not stable
